Data reported in US20080171783A1, “COMPOSITIONS AND METHODS FOR TREATING HYPERPROLIFERATIVE DISEASE” (Migenix Inc., priority 2006, published 2008).

Experiments:
Experiment in all cases: NCI In Vitro Cell Line Screening (SRB)
HOP-92 = assay type: cell-based, human; settings: HOP-92, Non-Small Cell Lung Cancer, 48 h; for GI50 / CC50: Homo sapiens; for CC50: read-out: LC50 (the source's name)
HCT-116 = assay type: cell-based, human; settings: HCT-116, Colon Cancer, 48 h
SK-OV-3 = assay type: cell-based, human; settings: SK-OV-3, Ovarian Cancer, 48 h; for GI50 / CC50: Homo sapiens; for CC50: read-out: LC50 (the source's name)
MDA-MB-468 = settings: for TGI: MDA-MB-468, Breast Cancer, 48 h
OVCAR-5 = assay type: cell-based, human; settings: OVCAR-5, Ovarian Cancer, 48 h; for GI50 / CC50: Homo sapiens; for CC50: read-out: LC50 (the source's name)
SK-MEL-28 = assay type: cell-based, human; settings: SK-MEL-28, Melanoma, 48 h; for GI50 / CC50: Homo sapiens; for CC50: read-out: LC50 (the source's name)
LOX IMVI = assay type: cell-based, human; settings: Melanoma, 48 h; for GI50 / LC50: Homo sapiens
SR = assay type: cell-based; settings: Leukemia, 48 h
RPMI-8226 = assay type: cell-based, human; settings: RPMI-8226, Leukemia, 48 h
M14 = assay type: cell-based, human; settings: M14, Melanoma, 48 h; for GI50 / CC50: Homo sapiens; for CC50: read-out: LC50 (the source's name)
DU-145 = assay type: cell-based, human; settings: DU-145, Prostate Cancer, 48 h; for GI50 / CC50: Homo sapiens; for CC50: read-out: LC50 (the source's name)
OVCAR-4 = assay type: cell-based, human; settings: OVCAR-4, Ovarian Cancer, 48 h; for GI50 / CC50: Homo sapiens; for CC50: read-out: LC50 (the source's name)
SW-620 = assay type: cell-based; settings: SW-620, Colon Cancer, 48 h; for GI50 / CC50: Homo sapiens; for CC50: read-out: LC50 (the source's name)
CCRF-CEM = assay type: cell-based, human; settings: Leukemia, 48 h; for GI50 / CC50: Homo sapiens; for CC50: read-out: LC50 (the source's name)
NCI-H522 = assay type: cell-based, human; settings: NCI-H522, Non-Small Cell Lung Cancer, 48 h
SNB-19 = assay type: cell-based, human; settings: SNB-19, CNS Cancer, 48 h
KM12 = assay type: cell-based, human; settings: KM12, Colon Cancer, 48 h; for GI50 / CC50: Homo sapiens; for CC50: read-out: LC50 (the source's name)
SF-539 = assay type: cell-based, human; settings: SF-539, CNS Cancer, 48 h; for GI50 / CC50: Homo sapiens; for CC50: read-out: LC50 (the source's name)
NCI-H226 = assay type: cell-based, human; settings: NCI-H226, Non-Small Cell Lung Cancer, 48 h; for GI50 / LC50 (concentration killing 50% of cells): Homo sapiens
HS 578T = assay type: cell-based, human; settings: Breast Cancer, 48 h; for GI50 / CC50: Homo sapiens; for CC50: read-out: LC50 (the source's name)
SF-295 = assay type: cell-based, human; settings: SF-295, CNS Cancer, 48 h; for GI50 / CC50: Homo sapiens; for CC50: read-out: LC50 (the source's name)
U251 = assay type: cell-based, human; settings: U251, CNS Cancer, 48 h; for GI50 / CC50: Homo sapiens, U-251; for CC50: read-out: LC50 (the source's name)
A549/ATCC = assay type: cell-based; settings: Non-Small Cell Lung Cancer, 48 h; for GI50 / CC50: Homo sapiens; for CC50: read-out: LC50 (the source's name)
IGROV1 = assay type: cell-based; settings: IGROV1, Ovarian Cancer, 48 h; for CC50: read-out: LC50 (the source's name)
EKVX = assay type: cell-based, human; settings: Non-Small Cell Lung Cancer, 48 h; for GI50 / LC50: Homo sapiens
CAKI-1 = assay type: cell-based, human; settings: CAKI-1, Renal Cancer, 48 h; for GI50 / CC50: Homo sapiens; for CC50: read-out: LC50 (the source's name)
ACHN = assay type: cell-based, human; settings: Renal Cancer, 48 h; for GI50 / CC50: Homo sapiens; for CC50: read-out: LC50 (the source's name)
[1] = Homo sapiens, read-out: LC50 (the source's name)

## CC(C)(C)c1ccc(NC(=O)[C@H](CCCCN)NC(=O)OCC2c3ccccc3-c3ccccc32)cc1 [Compound 105, (S)-[5-AMINO-1-(4-TERT-BUTYL-PHENYLCARBAMOYL)-PENTYL]-CARBAMIC ACID 9H-FLUOREN-9-YLMETHYL ESTER]
HOP-92
  TGI: 3.08 µM
  GI50: 1.34 µM
  CC50: 7.1 µM
HCT-116
  TGI: 3.35 µM
HCT-116; Homo sapiens
  GI50: 1.53 µM
  LC50 (concentration killing 50% of cells): 7.3 µM
SK-OV-3
  GI50: 1.85 µM
  CC50: 5.99 µM
  TGI: 3.33 µM
MDA-MB-468; Homo sapiens, MDA-MB-468, 48 h
  GI50: 1.46 µM
MDA-MB-468
  TGI: 3.27 µM
OVCAR-5
  GI50: 1.85 µM
  CC50: 6.5 µM
  TGI: 3.46 µM
SK-MEL-28
  GI50: 12.3 µM
  CC50: 50.2 µM
  TGI: 24.8 µM
LOX IMVI
  GI50: 1.81 µM
  LC50: 6.42 µM
  TGI: 3.41 µM
SR; Homo sapiens
  GI50: 0.403 µM
SR; [1]
  CC50: > 100 µM
RPMI-8226; Homo sapiens
  GI50: 1.71 µM
RPMI-8226
  TGI: 3.78 µM
M14
  GI50: 1.77 µM
  CC50: 6.55 µM
  TGI: 3.40 µM
DU-145
  TGI: 31.2 µM
  GI50: 15.8 µM
  CC50: 61.6 µM
OVCAR-4
  GI50: 1.77 µM
  CC50: > 100 µM
  TGI: 4.25 µM
SW-620
  GI50: 2.49 µM
  CC50: 21.7 µM
  TGI: 6.24 µM
CCRF-CEM
  GI50: 1.69 µM
  CC50: 6.47 µM
  TGI: 3.31 µM
NCI-H522; Homo sapiens
  GI50: 2.1 µM
NCI-H522
  TGI: 4.43 µM
SNB-19; Homo sapiens
  GI50: 1.6 µM
SNB-19; [1]
  CC50: 5.68 µM
SNB-19
  TGI: 3.01 µM
KM12
  GI50: 14.8 µM
  CC50: 55.7 µM
  TGI: 28.7 µM
SF-539
  GI50: 1.48 µM
  CC50: 5.63 µM
  TGI: 2.89 µM
NCI-H226
  GI50: 22.2 µM
  LC50 (concentration killing 50% of cells): 89.2 µM
  TGI: 44.4 µM
HS 578T
  TGI: 16.7 µM
  GI50: 2.93 µM
  CC50: 48.7 µM
SF-295
  GI50: 3.74 µM
  CC50: 65.3 µM
  TGI: 19.0 µM
U251
  GI50: 4.74 µM
  CC50: 48.3 µM
  TGI: 17.3 µM
A549/ATCC
  GI50: 1.77 µM
  CC50: > 100 µM
  TGI: 23.5 µM
IGROV1; Homo sapiens, IGROV-1
  CC50: 6.97 µM
IGROV1
  TGI: 3.11 µM
EKVX
  GI50: 21 µM
  LC50: 90 µM
  TGI: 43.5 µM
CAKI-1
  TGI: 43.9 µM
  GI50: 19.8 µM
  CC50: 97.2 µM
ACHN
  GI50: 15.7 µM
  CC50: 58.5 µM
  TGI: 30.3 µM

## Cc1ccc(NC(=O)[C@@H](CCCCN)NC(=O)Nc2ccc3c(c2)Cc2ccccc2-3)cc1 [Compound 173, (R)-6-AMINO-2-[3-(9H-FLUOREN-2-YL)-UREIDO]-HEXANOIC ACID P-TOLYLAMIDE]
HOP-92
  TGI: 5.13 µM
  GI50: 1.37 µM
  CC50: 38.5 µM
HCT-116
  TGI: 4.40 µM
HCT-116; Homo sapiens
  GI50: 2.16 µM
SK-OV-3
  GI50: 1.61 µM
  CC50: 5.88 µM
  TGI: 3.08 µM
MDA-MB-468; Homo sapiens, MDA-MB-468, 48 h
  GI50: 1.66 µM
MDA-MB-468; Homo sapiens, MDA-MB-468, 48 h, read-out: LC50
  CC50: 8.31 µM
MDA-MB-468
  TGI: 3.72 µM
OVCAR-5
  GI50: 1.92 µM
  CC50: 6.57 µM
  TGI: 3.55 µM
SK-MEL-28
  GI50: 1.43 µM
  CC50: 5.43 µM
  TGI: 2.79 µM
LOX IMVI
  GI50: 1.4 µM
  LC50: 5.2 µM
  TGI: 2.70 µM
SR; Homo sapiens
  GI50: 1.3 µM
SR
  TGI: 3.41 µM
RPMI-8226; Homo sapiens
  GI50: 1.59 µM
RPMI-8226; [1]
  CC50: > 100 µM
RPMI-8226
  TGI: 4.87 µM
M14
  GI50: 3.43 µM
  CC50: > 100 µM
  TGI: 11.4 µM
DU-145
  TGI: 20.0 µM
  GI50: 6.94 µM
  CC50: 46.3 µM
OVCAR-4
  GI50: 9.3 µM
  CC50: > 100 µM
  TGI: 68.8 µM
SW-620
  GI50: 1.67 µM
  CC50: 6.12 µM
  TGI: 3.19 µM
CCRF-CEM
  GI50: 1.97 µM
  CC50: > 100 µM
  TGI: 5.15 µM
NCI-H522; Homo sapiens
  GI50: 4.15 µM
  LC50: > 100 µM
NCI-H522
  TGI: 23.5 µM
SNB-19; Homo sapiens
  GI50: 1.59 µM
SNB-19
  TGI: 3.21 µM
KM12
  GI50: 1.31 µM
  CC50: 5.07 µM
  TGI: 2.57 µM
SF-539
  GI50: 1.92 µM
  CC50: 11.9 µM
  TGI: 4.48 µM
NCI-H226
  GI50: 1.62 µM
  LC50 (concentration killing 50% of cells): 45.6 µM
  TGI: 9.56 µM
HS 578T
  TGI: 4.77 µM
  GI50: 1.64 µM
  CC50: 32.7 µM
SF-295
  GI50: 0.341 µM
  CC50: 5.17 µM
  TGI: 2.07 µM
U251
  GI50: 1.49 µM
  CC50: 5.3 µM
  TGI: 2.80 µM
A549/ATCC
  GI50: 1.55 µM
  CC50: 7.66 µM
  TGI: 3.45 µM
IGROV1; Homo sapiens, IGROV-1
  GI50: 3.56 µM
  CC50: 81 µM
IGROV1
  TGI: 17.9 µM
EKVX
  GI50: 1.19 µM
  LC50: > 100 µM
  TGI: 46.2 µM
CAKI-1
  TGI: 34.0 µM
  GI50: 0.135 µM
  CC50: > 100 µM
ACHN
  GI50: 12.2 µM
  CC50: 54.7 µM
  TGI: 25.8 µM
